Source: patent US11998595B2, “Telomerase polypeptide vaccine for treating cancer” (Ultimovacs AS, priority 2010, dated 2024)

Assays:
T cells (patient PBMCs) = assay: T-cell proliferation assay (3H-thymidine) of patient PBMC/T cells with hTERT peptides or transfected DC; type: cell-based, human
Method: FIG. 1 is a bar graph summarising hTERT T-cell responses detected in pancreas cancer patient vaccinated with DC transfected with hTERT mRNA. In samples from various time points throughout a vaccination schedule, T-cell responses against 24 overlapping hTERT 15-mer peptides were detected. Proliferation in response to peptide-loaded PBMC was measured by ^3H-thymidine incorporation. A stimulation index of >2 is considered an immune response.
Peripheral blood mononuclear cells (PBMCs) were obtained prior to the four standard vaccinations, after 5 weeks and after 12 weeks. PBMCs were also obtained before each monthly booster vaccination. The PBMCs were isolated and frozen as previously described (Kyte et al, 2005). Thawed PBMCs were stimulated once in vitro with tDCs (not with mockDCs) and cultured and then tested in T cell proliferation assays (^3H Thymidine) as previously described (Kyte et al 2006). The T cells were tested in triplicates. Irradiated tDCs and mock-transfected DC controls (mockDCs) were used or PBMC with or without hTERT peptide as APCs. Negative controls with T cells only were included.
PBMCs from various time points were stimulated with an overlapping hTERT 15-mer peptide library or a 30-mer hTERT peptide, all from ProImmune and then tested in proliferation assays as above using irradiated PBMCs as APCs as described in (Bernhardt et al 2006).
T-cell responses to a hTERT peptide library (including the polypeptides from Table 1) were determined for T-cells from 5 patients in addition to the patients reported in Examples 1 and 2. The methods were the same as previously described in Example 1 or in Bernhardt et al 2006. In brief, PBMCs from various time points during vaccination were stimulated with the overlapping hTERT peptide library prior to testing for specific T-cell responses in proliferation assays.
The proliferative T-cell responses of each patient to a series of peptides were then determined as explained in Example 1. The results are tabulated in Table 5 and are shown graphically in FIG. 14 in which the peptide designations are referenced in Table 6 (the results for peptides 726 and GV1001 are shown only for comparison).
Four patients who were clinical non-responders following a lung cancer diagnosis and a GV1001 (SEQ ID NO. 10) peptide vaccination were studied. These patients were all stage IV lung cancer patients vaccinated with GV1001. […] The proliferative T-cell responses of each patient to a series of peptides were determined in the same manner as in Example 1, at one time point. The peak response of each patient during the study period to peptide GV1001 is also shown which confirms that each patient responded immunologically to GV1001 vaccination.
Six patients who were clinical non-responders following a melanoma cancer diagnosis and a GV1001 peptide (SEQ ID NO. 10) vaccination were studied. These patients were all stage IV melanoma patients and included in the same GV1001 vaccination trial as melanoma patients P7 and P8 who were long term survivors (see Example 6). […] Five of the patients also experienced progressive disease and one patient, designated Melanoma P3, experienced some stabilization of the disease but still had short survival. The proliferative T-cell responses of each patient to a series of peptides were determined in the same manner as in Example 1, at one time point. The peak response of each patient during the study period to peptide GV1001 is also shown which confirms that each patient responded immunologically to GV1001 vaccination.

[1] = system: late stage inoperable colon cancer patient; assay: Clinical course of vaccinated colon cancer patient; type: in vivo, human; conditions: patient Colon ca P1
Method: A comparison of the patients studied in Example 4 was carried out. In brief, seven patients were identified as clinical responders following a cancer diagnosis and vaccination with an hTERT vaccine. These patients were identified based on a combination of prolonged survival and clinical response. The clinical response could either be stable disease (SD), partial response (PR) or complete response (CR). The vaccinated melanoma patients were diagnosed with stage IV at the time of inclusion in the clinical trial, but had no brain metastases. Lung cancer patient P5 was diagnosed with stage IV, inoperable lung cancer and colon cancer patient P1 with late stage inoperable colon cancer. Lung cancer patient P6 was a stage IV lung cancer patient with a 12-week life expectancy. Pancreas cancer patient P1 had relapsed, inoperable pancreas cancer and a life expectancy of 8-10 months. Four of the patients (designated Melanoma P7-P8, Lung cancer P5 and Colon cancer P1) had each been vaccinated with the peptide GV1001 (SEQ ID NO. 10). The fifth patient (designated Lung cancer P6) and the sixth patient (designated Pancreas cancer 1) had been vaccinated with dendritic cells transfected with mRNA encoding hTERT. The seventh patient, Melanoma patient P9, had not been vaccinated at the time of the study and instead developed a spontaneous response following development of the cancer. (An eighth and final patient was also identified as a clinical responder but samples from this patient were not available for study.)
The patients were classed as either clinical responders or clinical non-responders based on their clinical response which included stable disease (SD), tumour regression (PR or CR) and unexpectedly long survival time. Both clinical responders and clinical non-responders were selected from the same or similar vaccination trials.

## EARPALLTSRLRFIPK (listed as Homo sapiens) [GV1001]
T cells (patient PBMCs); all patients of Example 6
  SI of response: > 2
T cells (patient PBMCs); all patients of Examples 1 to 8
  immunological response of patients: All patients responded immunologically
T cells (patient PBMCs); patient Colon ca P1, GV1001-vaccinated, clinical responder
  proliferative T-cell response (SI): 105.1
T cells (patient PBMCs); patient Lung ca P1, GV1001-vaccinated, clinical non-responder, one time point
  proliferative T-cell response (SI): 0.9
T cells (patient PBMCs); patient Lung ca P1, peak during study period
  Peak response GV1001: 60.95
T cells (patient PBMCs); patient Lung ca P2, GV1001-vaccinated, clinical non-responder, one time point
  proliferative T-cell response (SI): 122.8
T cells (patient PBMCs); patient Lung ca P2, peak during study period
  Peak response GV1001: 122.8
T cells (patient PBMCs); patient Lung ca P3, GV1001-vaccinated, clinical non-responder, one time point
  proliferative T-cell response (SI): 1.4
T cells (patient PBMCs); patient Lung ca P3, peak during study period
  Peak response GV1001: 161.6
T cells (patient PBMCs); patient Lung ca P4, GV1001-vaccinated, clinical non-responder, one time point
  proliferative T-cell response (SI): 1.2
T cells (patient PBMCs); patient Lung ca P4, peak during study period
  Peak response GV1001: 13.3
T cells (patient PBMCs); patient Lung ca P5, GV1001-vaccinated, clinical responder
  proliferative T-cell response (SI): 20.1
T cells (patient PBMCs); patient Lung ca P6, DC/hTERT mRNA-vaccinated, clinical responder, high background
  proliferative T-cell response (SI): 7.1
T cells (patient PBMCs); patient Melanoma P1, GV1001-vaccinated, clinical non-responder, one time point
  proliferative T-cell response (SI): 1.4
T cells (patient PBMCs); patient Melanoma P1, peak during study period
  Peak response GV1001: 26.0
T cells (patient PBMCs); patient Melanoma P2, GV1001-vaccinated, clinical non-responder, one time point
  proliferative T-cell response (SI): 0.9
T cells (patient PBMCs); patient Melanoma P2, peak during study period
  Peak response GV1001: 38.7
T cells (patient PBMCs); patient Melanoma P3, GV1001-vaccinated, clinical non-responder, one time point
  proliferative T-cell response (SI): 1.8
T cells (patient PBMCs); patient Melanoma P3, peak during study period
  Peak response GV1001: 3.7
T cells (patient PBMCs); patient Melanoma P4, GV1001-vaccinated, clinical non-responder, one time point
  proliferative T-cell response (SI): 1.2
T cells (patient PBMCs); patient Melanoma P4, peak during study period
  Peak response GV1001: 10.7
T cells (patient PBMCs); patient Melanoma P5, GV1001-vaccinated, clinical non-responder, one time point
  proliferative T-cell response (SI): 25.2
T cells (patient PBMCs); patient Melanoma P5, peak during study period
  Peak response GV1001: 35.4
T cells (patient PBMCs); patient Melanoma P6, GV1001-vaccinated, clinical non-responder, one time point
  proliferative T-cell response (SI): 21.4
T cells (patient PBMCs); patient Melanoma P6, peak during study period
  Peak response GV1001: 122.0
T cells (patient PBMCs); patient Melanoma P7, GV1001-vaccinated, clinical responder
  proliferative T-cell response (SI): 76.5
T cells (patient PBMCs); patient Melanoma P8, GV1001-vaccinated, clinical responder
  proliferative T-cell response (SI): 13.2
T cells (patient PBMCs); patient Melanoma P9, non-vaccinated, spontaneous response
  proliferative T-cell response (SI): 1.7
T cells (patient PBMCs); patient Pancreas ca P1, DC/hTERT mRNA-vaccinated, clinical responder, high background
  proliferative T-cell response (SI): 2.2
[1]
  Clinical Responder: Yes
  Clinical response: alive, CR
  Vaccine-specific T cell response at time-point tested: Yes
[1]; + signifies that the patient is still alive
  Survival (Months): 80+ Months
